Data set [1] has as its system HeLa cells. Kind of data set: Cytotoxicity in HeLa cells (ATP content, ATPlite kit). It counts as cell-based. An outline of the steps:
(§1)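 Over 3 days at 37 °C, compound titrations (4-fold steps, nine dilutions) were tested on HeLa cells infected with rgRSV224 (MOI = 1), inhibition of GFP signal giving EC50. In parallel plates, ATP content of HeLa cells after 3-day exposure defined CC50.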
In general terms: In ATP-based viability assays light output follows the ATP content of the culture.

Data set [2] relates to rgRSV224 virus. As to the kind of experiment: Antiviral activity: rgRSV224 (GFP) replication in HeLa cells. To be noted: averaged data of several repeat experiments. It counts as cell-based, respiratory syncytial virus (RSV). Put shortly:
as §1

Data set [3] can be described thus: Cytotoxicity in HeLa cells (ATP content, ATPlite kit). It counts as cell-based. The note with it: human, TOX HELA CC50. Put shortly:
as §1

Where [4] appears, read: HeLa cells, three days incubation, ATP content, averaged data of several repeat experiments, read-out: TOX HELA CC50.
The mark [5] stands for this setting: HeLa cells, rgRSV224 MOI = 1, GFP expression three days post-virus exposure, read-out: RSV HELA EC50.
Where [6] appears, read: read-out: RSV HELA EC50, HeLa cells, rgRSV224 MOI = 1, GFP expression three days post-virus exposure.

From patent US20230203004A1, “RSV INHIBITING 3-SUBSTITUTED QUINOLINE AND CINNOLINE DERIVATIVES” (Janssen Sciences Ireland Unlimited Company, priority 2020, published 2023) come the findings set out here.

Where two headings read alike, the source gives them in different places.

Broadly, the CC50 is the concentration at which the toxic effect on the cells reaches its halfway point. One may read the EC50 as the concentration that produces a half-maximal response. On to `COc1cc(C(=O)NCC(O)(c2cc(C(C)(C)O)c(F)c(-c3ccc(C(F)(F)F)cc3)n2)C2CC2)cc2cc(C)nnc12` (single isomer, unassigned; (-)) [compound 253], for which the CC50 in data set [1] (setting [4]) was 13 µM. The EC50 in data set [2] (setting [5]) turned out to be 0.00025 µM.

In turn, `COc1cc(C(=O)NCC(O)(c2cc(C(C)(C)O)c(F)c(-c3ccc(F)cc3)n2)C(F)F)cc2cc(C)nnc12` (single isomer, unassigned; (-)) [compound 250, (-)-N-{3,3-Difluoro-2-[5-Fluoro-6-(4-Fluorophenyl)-4-(2-Hydroxypropan-2-yl)Pyridin-2-yl]-2-Hydroxypropyl}-8-Methoxy-3-Methylcinnoline-6-Carboxamide] registered a CC50 in data set [1] (human, 3 days) of 40 µM. Moreover, in data set [2] (setting [6]), the EC50 is 0.0014 µM.

For `Cc1cc2cc(C(=O)NCC(O)(c3nc(-c4ccc(F)cc4)c(Cl)c(C(C)(C)O)c3F)C(F)(F)F)cc(OC3CC3)c2nn1` (single isomer, unassigned; (-)) [compound 263], in data set [1] (setting [4]), the CC50 amounted to 47 µM. For the same compound, the EC50 in data set [2] (setting [5]) came to 0.0027 µM.

On to `COc1cc(C(=O)NC[C@](O)(c2nc(-c3ccc(F)cc3)c(F)c(C(C)(C)O)c2C)C2CC2)cc2cc(C)nnc12` [compound 246], for which half-maximal cytotoxicity in data set [1] (CC50) was put at 46 µM. Moreover, the EC50 in data set [2] (setting [5]) came out at 0.2 µM.

Take `Cc1cc2cc(C(=O)NCC(O)(c3nc(-c4ccc(F)cc4)c(F)c(C(C)(C)O)c3F)C(F)(F)F)cc(OC3CC3)c2nn1` (single isomer, unassigned; (-)) [compound 262, (-)(Cyclopropyloxy)-N-{2-[3,5-Difluoro-6-(4-Fluorophenyl)-4-(2-Hydroxypropan-2-yl)Pyridin-2-yl]-3,3,3-Trifluoro-2-Hydroxypropyl}-3-Methylcinnoline-6-Carboxamide]: in data set [1] (setting [4]), the CC50 was 45 µM. For the same compound, the EC50 in data set [2] (setting [5]) was 0.0019 µM.

With `COc1cc(C(=O)NCC(O)(c2cc(C(C)(C)O)c(F)c(-c3ccc(F)cc3)n2)C(F)F)cc2cc(C)c(F)nc12` (single isomer, unassigned; (-)) [compound 214, (-)-N-{3,3-Difluoro-2-[5-Fluoro-6-(4-Fluorophenyl)-4-(2-Hydroxypropan-2-yl)Pyridin-2-yl]-2-Hydroxypropyl}-2-Fluoro-8-Methoxy-3-Methylquinoline-6-Carboxamide], in data set [1] (human, 3 days), the CC50 is 28 µM. Moreover, the EC50 in data set [2] (setting [6]) was determined as 0.0014 µM.

As for `COc1cc(C(=O)NCC(O)(c2cc(C(C)(C)O)c(F)c(-c3ccc(F)c(F)c3)n2)C2CC2)cc2cc(C)nnc12` (single isomer, unassigned; (-)) [compound 256], the CC50 in data set [1] (setting [4]) stood at 33 µM. Moreover, in data set [2] (setting [5]), the EC50 came to 0.00019 µM.

As for `Cc1cc2cc(C(=O)NC[C@](O)(c3cc(C(C)(C)O)c(F)c(-c4ccc(F)cc4)n3)C3(F)CC3)cc(OC3CC3)c2nn1` [compound 335, (-)Cyclopropoxy-N-(2-(5-Fluoro-6-(4-Fluorophenyl)-4-(2-Hydroxypropan-2-yl)Pyridin-2-yl)-2-(1-Fluorocyclopropyl)-2-Hydroxyethyl)-3-Methylcinnoline-6-Carboxamide], the CC50 in data set [1] (human, 3 days) was approximately 14 µM. In addition, in data set [2] (setting [6]), the EC50 was 0.021 µM.

Take `COc1cc(C(=O)NCC(O)(c2cc(C(C)(C)O)c(Cl)c(-c3ccc(F)cc3)n2)C(C)C)cc2cc(C)nnc12` (single isomer, unassigned; (-)) [compound 231, (-)-N-{2-[5-Chloro-6-(4-Fluorophenyl)-4-(2-Hydroxypropan-2-yl)Pyridin-2-yl]-2-Hydroxy-3-Methylbutyl}-8-Methoxy-3-Methylcinnolme-6-Carboxamide]: the CC50 in data set [1] (setting [4]) came out at 21 µM. Moreover, the EC50 in data set [2] (setting [5]) stood at 0.00041 µM.

Compound `COc1cc(C(=O)NCC(O)(c2cc(C(C)(C)O)c(F)c(-c3ccc(F)cc3)n2)C(F)F)cc2cc(C)cnc12` (single isomer, unassigned; (-)) [compound 204, (-)-N-{3,3-Difluoro-2-[5-Fluoro-6-(4-Fluorophenyl)-4-(2-Hydroxypropan-2-yl)Pyridin-2-yl]-2-Hydroxypropyl}-8-Methoxy-3-Methylquinoline-6-Carboxamide] showed a CC50 in data set [1] (human, 3 days) of 48 µM. Also, the EC50 in data set [2] (setting [6]) stood at 0.001 µM.

With `COc1cc(C(=O)NC[C@@](O)(c2nc(-c3ccc(F)cc3)c(F)c(C(C)(C)O)c2C)C2CC2)cc2cc(C)nnc12` [compound 245], the CC50 in data set [1] turned out to be 48 µM. The EC50 in data set [2] (setting [5]) turned out to be 0.0029 µM.

As to `COc1cc(C(=O)NCC(O)(c2nc(-c3ccc(F)cc3)c(Cl)c(C(C)(C)O)c2F)C(F)(F)F)cc2cc(C)nnc12` (single isomer, unassigned; (+)) [compound 248, (+)-N-{2-[5-Chloro-3-Fluoro-6-(4-Fluorophenyl)-4-(2-Hydroxypropan-2-yl)Pyridin-2-yl]-3,3,3-Trifluoro-2-Hydroxypropyl}-8-Methoxv-3-Methylcinnoline-6-Carboxamide], in data set [1] (setting [4]), the CC50 was 41 µM. Moreover, in data set [2] (setting [5]), the EC50 was 0.5 µM.

In data set [1] (human, 3 days), `Cc1cc2cc(C(=O)NC[C@](O)(c3cc(C(C)(C)O)c(F)c(-c4ccc(F)cc4)n3)C3(F)CC3)cc(OC3CC3)c2nn1` [compound 317, (-)Cyclopropoxy-N-(2-(5-Fluoro-6-(4-Fluorophenyl)-4-(2-Hydroxypropan-2-yl)Pyridin-2-yl)-2-(1-Fluorocyclopropyl)-2-Hydroxyethyl)-3-Methylcinnoline-6-Carboxamide] displayed a CC50 of 29 µM. Also, in data set [2] (setting [6]), the EC50 came to 0.00087 µM.

`COc1cc(C(=O)NC[C@](O)(c2cc(C(C)(C)O)c(F)c(-c3ccc(C(F)(F)F)cc3)n2)C2CC2)cc2cc(C)c(F)nc12` [compound 217, N-[(-)Cyclopropyl{5-Fluoro-4-(2-Hydroxypropanyl)-6-[4-(Trifluoromethyl)Phenyl]-Pyridinyl}Hydroxyethyl]Fluoro-8-Methoxy-3-Methylquinoline-6-Carboxamide] displayed a CC50 at 3 days in data set [3] of 14 µM. Further, the EC50 in data set [2] (human respiratory syncytial virus, HeLa, 72 h, read-out: RSV HELA EC50, HeLa cells, rgRSV224 MOI = 1, GFP expression three days post-virus exposure) is 0.0013 µM.
